As a reminder, the IC50 is the point on the concentration scale where inhibition reaches its midpoint.

Sequence of 5-HT3a receptor expressed in HEK-293T cells (P46098 24-478): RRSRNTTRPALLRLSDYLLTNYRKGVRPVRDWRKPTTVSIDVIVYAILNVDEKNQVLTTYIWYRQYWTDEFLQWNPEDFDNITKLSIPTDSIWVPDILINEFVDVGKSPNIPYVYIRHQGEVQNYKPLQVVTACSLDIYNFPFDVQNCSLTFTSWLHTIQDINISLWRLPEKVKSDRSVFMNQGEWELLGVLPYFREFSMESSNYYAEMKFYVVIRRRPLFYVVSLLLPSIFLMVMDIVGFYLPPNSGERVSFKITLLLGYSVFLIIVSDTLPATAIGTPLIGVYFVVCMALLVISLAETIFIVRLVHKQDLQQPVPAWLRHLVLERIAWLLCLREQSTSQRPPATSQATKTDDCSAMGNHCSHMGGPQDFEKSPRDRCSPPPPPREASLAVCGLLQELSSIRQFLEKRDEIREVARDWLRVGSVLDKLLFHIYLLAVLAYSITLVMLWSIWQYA

The test deals with 5-HT3a receptor expressed in HEK-293T cells (Homo sapiens (Human), UniProt P46098). The test can be described thus: Inhibition of Ca flux activity of 5-HT3 in vitro assay. Format: cell-based. The note with it: approximate IC50; calcium flux, 5HT 216 nM, HEK-293T cells transfected with 5-HT3a. On the procedure:
The 5-HT3 antagonist activity of the compounds of the invention was determined by measuring the ability of the compounds to inhibit the calcium flux activity of […] receptor expressed in HEK-293T cells. HEK-293T cells were transfected with the 5-HT3a expression construct using Xtreme Gene 9 (Roche) in 150 mm tissue culture treated plates and incubated for 24 hours at 37° C. Cells were then split and plated at a density of 60K cells/well in poly-lysine coated, black 96-well plates with clear bottoms (BD BioSciences) and incubated overnight at 37° C. Growth media was removed and cells loaded with 200 uL calcium indicator dye in HBSS containing 20 mM HEPES (Calcium 5 Assay kit, Molecular Devices) and incubated at 37° C. for 1 hour. While cells were incubating, the 10× antagonist and agonist/antagonist addition plates were made. For 10× antagonist plate: half log serial dilutions (final concentrations range from 10^−7 through 10^−10 with the bottom well a negative, no ligand control) were made from test compounds in DMSO at a 1000× concentration and then diluted to 10× in HBSS/20 mM HEPES. For addition plate: 5HT was diluted to 100× in HBSS/20 mM HEPES (final concentration in the assay-216 nM) and 15 uL was added to each well of the addition plate, 15 uL of 10× compound was also added to the addition plate, and finally 120 uL of HBSS/20 mM HEPES (for a total of 150 uL). Cells were then removed from the incubator and equilibrated to room temperature for 10 minutes, then 22.5 uL of 10× test compounds were added in triplicate to the plates and incubated at room temperature for 10 minutes (Tropisetron was used as a positive control in every assay). Test plate and addition plate were loaded into the FlexStation III (Molecular Devices), and using the fluidics, 22.5 uL compound additions were made (at t=˜17 seconds), and fluorescence was measured for 90 seconds, reading every 2.2 seconds. Data sets were analyzed as max minus min using Software Max Pro (Molecular Devices). IC50 curves were generated using non-linear regression in GraphPad Prism.
For the compound “(1R,5S,7S)-9-methyl-3-oxa-9-azabicyclo [3.3.1]nonan-7-yl 1-(1-(2-fluoroethyl)- 1H-pyrazol-4-yl)-1H-indole-3-carboxylate, 2,2,2-trifluoroacetic acid salt [Compound 18]”, the IC50 is 2.01 nM.

For `CN1[C@@H]2COC[C@H]1C[C@@H](NC(=O)c1cn(-c3ccccn3)c3ccccc13)C2` [Compound 6, N-((1R,5S,7S)-9-methyl-d3-3-oxa-9-azabicyclo[3.3.1]nonan-7-yl)-1-(pyridin-2-yl)-1H-indole-3-carboxamide, 2,2,2-trifluoroacetate], the concentration for half-maximal inhibition (IC50) worked out at 1.1 nM.

Consider `CN1[C@@H]2COC[C@H]1C[C@@H](NC(=O)c1cn(-c3ccc[n+]([O-])c3)c3ccccc13)C2` [Compound 32, 3-(3-(((1R,5S,7S)-9-methyl-3-oxa-9-azabicyclo[3.3.1]nonan-7-yl)carbamoyl)-1H-indol-1-yl)pyridine 1-oxide], for which the IC50 worked out at 1.36 nM.

Consider `CN1[C@@H]2COC[C@H]1C[C@@H](OC(=O)c1cn(-c3cn[nH]c3)c3ccccc13)C2` [Compound 29, (1R,5S,7S)-9-methyl-3-oxa-9-azabicyclo [3.3.1]nonan-7-yl 1-(1H-pyrazol-4-yl)-1H-indole-3-carboxylate], for which the IC50 was 0.462 nM.

Take `CN1[C@@H]2COC[C@H]1C[C@@H](OC(=O)c1cn(-c3cnn(C)c3)c3ccccc13)C2` [Compound 26, (1R,5S,7S)-9-methyl-3-oxa-9-azabicyclo[3.3.1]nonan-7-yl 1-(1-methyl-1H-pyrazol-4-yl)-1H-indole-3-carboxylate]: the concentration for half-maximal inhibition (IC50) was found to be 1.2 nM.

The record behind these values is patent publication US9670229B2, “5-HT3 receptor antagonists” (Takeda Pharmaceutical Company Limited, priority 2012, dated 2017).
